Results: US11110146B2, “Methods for reducing platelet aggregation and treating cardiovascular disease and other medical disorders” (Paradise Health, Inc., priority 2014, dated 2021)
“And” between values parts separate entries of the source, which are not always exact repeats. Equal values may be shown once.

Assays:
Format in all cases: cell-based, human
[1] = test system: platelets in platelet-rich plasma (PRP); test: Light transmission aggregometry, platelet aggregation induced by adenosine diphosphate; conditions: for inhibition of platelet aggregation in the presence of 5 or 20 μM ADP: at any of the concentrations tested
Experimental: (§1) All the experiments were conducted using healthy adult volunteers not taking aspirin or other medications that affect platelet aggregation. Whole blood was collected into 0.105 M buffered sodium citrate as the anticoagulant. Platelet-rich plasma (PRP) was prepared by centrifugation of whole blood at 135×g for 20 min. The residual blood sample was then centrifuged at 2,500×g for 15 min to obtain platelet-poor plasma (PPP). Platelet counts in the PRP were determined using a Horiba Micros 60 cell counter. For LTA experiments, platelet counts in PRP were adjusted to 250,000/μL using autologous donor PPP as the diluent.
Stock solutions of ADP (200 μM) were prepared in saline and stored frozen at −80° C. A vial of stock ADP was thawed and further diluted in saline to obtain a 50 μM ADP solution. Fifty (50) μL of ADP solution (200 and 50 μM) were added to 450 μL of adjusted PRP to perform aggregation tests with 20 μM ADP and 5 μM ADP.
(§2) The samples were incubated in a water bath at 37° C. for 30 min before performing the LTA experiments. […]
(§3) After incubation of PRP with test articles, 450 μL of PRP were transferred into aggregation cuvettes for LTA testing. All aggregation experiments were performed on a LTA-Chronolog 700 aggregometer with Aggrolink 8 software. The instrument was set for an optical mode of data acquisition and the stir bar speed was set to 1.200 rpm. Autologous PPP was used in the reference channel of the aggregometer and baselines were set prior to addition of agonists. Fifty (50) μL of working agonist solutions (AA, ADP, and Collagen) were added to the cuvettes and tracings recorded for a minimum of 6 minutes. The maximal aggregation (MA) response was calculated using Aggrolink software for reporting the data.

[2] = test system: platelets in platelet-rich plasma (PRP); test: Light transmission aggregometry, platelet aggregation induced by arachidonic acid
Experimental: as §1
The stock vial (16 mM) of AA was diluted by adding 0.5 mL of deionized water to obtain a 1.6 mM AA solution. The AA solution was maintained on ice and was used within 6 hr of preparation.
The samples were incubated in a water bath at 37° C. for 30 min before performing the LTA experiments.
The adjusted PRP was incubated with indicated concentration of GoPE (Table 7) for 30 min at 37° C.
as §3

[3] = test system: platelets in platelet-rich plasma (PRP); test: Light transmission aggregometry, platelet aggregation induced by collagen
Experimental: as §1, with “Whole” for “All the experiments were conducted using healthy adult volunteers not taking aspirin or other medications that affect platelet aggregation. Whole”
Twenty five (25) jμL of the stock solution of collagen (1 mg/ml) was added to 475 μL of collagen dilution buffer to obtain a 50 μg/ml working solution. Fifty (50) μL of collagen solution was added to 450 μL of adjusted PRP to perform aggregation tests. The final concentration of collagen used for aggregation testing was 5 μg/ml.
as §2, §3

[4] = 6-paradol 1 μM, individual donor
[5] = 6-paradol 10 μM, individual donor
[6] = 6-paradol 100 μM, individual donor
[7] = 6-paradol 1000 μM, individual donor
[8] = substance at 10 μM and higher (6-paradol: in most experiments)
[9] = substance at a concentration of 1 μM
[10] = Aspirin 10 μM, individual donor
[11] = Aspirin 100 μM, individual donor
[12] = Aspirin 1000 μM, individual donor

CCCCCCCC(=O)CCc1ccc(O)c(OC)c1 [6-paradol]
Maximal Percent Aggregation Response to 5 μM Adenosine Diphosphate ([1]; 6-paradol 1 μM, Mean): 77%
Maximal Percent Aggregation Response to 20 μM Adenosine Diphosphate ([1]; 6-paradol 1 μM, Mean): 83%
Maximal Percent Aggregation Response to 5 μM Adenosine Diphosphate [1, 4]: 83% and 81% and 92% and 50%
Maximal Percent Aggregation Response to 20 μM Adenosine Diphosphate [1, 4]: 70% and 85% and 88% and 74% and 99%
Maximal Percent Aggregation Response to 5 μM Adenosine Diphosphate ([1]; 6-paradol 10 μM, Mean): 74%
Maximal Percent Aggregation Response to 20 μM Adenosine Diphosphate ([1]; 6-paradol 10 μM, Mean): 86%
Maximal Percent Aggregation Response to 5 μM Adenosine Diphosphate [1, 5]: 77% and 78% and 96% and 46%
Maximal Percent Aggregation Response to 20 μM Adenosine Diphosphate [1, 5]: 81% and 82% and 100% and 84% and 85%
Maximal Percent Aggregation Response to 5 μM Adenosine Diphosphate ([1]; 6-paradol 100 μM, Mean): 63%
Maximal Percent Aggregation Response to 20 μM Adenosine Diphosphate ([1]; 6-paradol 100 μM, Mean): 79%
Maximal Percent Aggregation Response to 5 μM Adenosine Diphosphate [1, 6]: 57% and 67% and 81% and 45%
Maximal Percent Aggregation Response to 20 μM Adenosine Diphosphate [1, 6]: 63% and 73% and 95% and 76% and 90%
Maximal Percent Aggregation Response to 5 μM Adenosine Diphosphate ([1]; 6-paradol 1000 μM, Mean): 50%
Maximal Percent Aggregation Response to 20 μM Adenosine Diphosphate ([1]; 6-paradol 1000 μM, Mean): 66%
Maximal Percent Aggregation Response to 5 μM Adenosine Diphosphate [1, 7]: 55% and 53% and 59% and 33%
Maximal Percent Aggregation Response to 20 μM Adenosine Diphosphate [1, 7]: 53% and 67% (3×) and 78%
inhibition of platelet aggregation in the presence of 5 or 20 μM ADP [1]: did not significantly inhibit
Maximal Percent Aggregation Response to 1.6 mM Arachidonic Acid ([2]; 6-paradol 1 μM, Mean): 82%
Maximal Percent Aggregation Response to 1.6 mM Arachidonic Acid [2, 4]: 72% and 77% and 96% and 65% and 98%
Maximal Percent Aggregation Response to 1.6 mM Arachidonic Acid ([2]; 6-paradol 10 μM, Mean): 51%
Maximal Percent Aggregation Response to 1.6 mM Arachidonic Acid [2, 5]: 0% (2×) and 99% and 71% and 87%
Maximal Percent Aggregation Response to 1.6 mM Arachidonic Acid ([2]; 6-paradol 100 μM, Mean): 2%
Maximal Percent Aggregation Response to 1.6 mM Arachidonic Acid [2, 6]: 0% (4×) and 9%
Maximal Percent Aggregation Response to 1.6 mM Arachidonic Acid ([2]; 6-paradol 1000 μM, Mean): 1%
Maximal Percent Aggregation Response to 1.6 mM Arachidonic Acid [2, 7]: 0% (4×) and 3%
inhibition of AA-mediated platelet aggregation [2, 8]: Near complete inhibition
inhibition of AA-mediated platelet aggregation [2, 9]: did not significantly inhibit
Maximal Percent Aggregation Response to 5 μg/ml Collagen ([3]; 6-paradol 1 μM, Mean): 89%
Maximal Percent Aggregation Response to 5 μg/ml Collagen [3, 4]: 81% and 100% and 77% and 97% and 90%
Maximal Percent Aggregation Response to 5 μg/ml Collagen ([3]; 6-paradol 10 μM, Mean): 95%
Maximal Percent Aggregation Response to 5 μg/ml Collagen [3, 5]: 82% and 100% (2×) and 97% and 98%
Maximal Percent Aggregation Response to 5 μg/ml Collagen ([3]; 6-paradol 100 μM, Mean): 85%
Maximal Percent Aggregation Response to 5 μg/ml Collagen [3, 6]: 82% and 100% and 88% and 89% and 64%
inhibition of collagen-mediated platelet aggregation response ([3]; 6-paradol 1000 μM): substantially inhibited
Maximal Percent Aggregation Response to 5 μg/ml Collagen ([3]; 6-paradol 1000 μM, Mean): 41%
Maximal Percent Aggregation Response to 5 μg/ml Collagen [3, 7]: 23% and 60% and 36% and 74% and 10%
inhibition of collagen-mediated platelet aggregation ([3]; 6-paradol concentrations of 100 μM or less): did not significantly inhibit

CC(=O)Oc1ccccc1C(=O)O [Aspirin, aspirin]
Maximal Percent Aggregation Response to 5 μM Adenosine Diphosphate ([1]; Aspirin 1 μM, Mean): 82%
Maximal Percent Aggregation Response to 20 μM Adenosine Diphosphate ([1]; Aspirin 1 μM, Mean): 90%
Maximal Percent Aggregation Response to 5 μM Adenosine Diphosphate ([1]; Aspirin 1 μM, individual donor): 78% and 83% and 92% and 73%
Maximal Percent Aggregation Response to 20 μM Adenosine Diphosphate ([1]; Aspirin 1 μM, individual donor): 91% and 87% and 100% and 81% and 90%
Maximal Percent Aggregation Response to 5 μM Adenosine Diphosphate ([1]; Aspirin 10 μM, Mean): 70%
Maximal Percent Aggregation Response to 20 μM Adenosine Diphosphate ([1]; Aspirin 10 μM, Mean): 80%
Maximal Percent Aggregation Response to 5 μM Adenosine Diphosphate [1, 10]: 82% and 63% and 84% and 52%
Maximal Percent Aggregation Response to 20 μM Adenosine Diphosphate [1, 10]: 78% (2×) and 92% and 68% and 84%
Maximal Percent Aggregation Response to 5 μM Adenosine Diphosphate ([1]; Aspirin 100 μM, Mean): 71%
Maximal Percent Aggregation Response to 20 μM Adenosine Diphosphate ([1]; Aspirin 100 μM, Mean): 86%
Maximal Percent Aggregation Response to 5 μM Adenosine Diphosphate [1, 11]: 63% and 94% and 75% and 53%
Maximal Percent Aggregation Response to 20 μM Adenosine Diphosphate [1, 11]: 63% and 87% (2×) and 95% and 97%
Maximal Percent Aggregation Response to 5 μM Adenosine Diphosphate ([1]; Aspirin 1000 μM, Mean): 74%
Maximal Percent Aggregation Response to 20 μM Adenosine Diphosphate ([1]; Aspirin 1000 μM, Mean): 80%
Maximal Percent Aggregation Response to 5 μM Adenosine Diphosphate [1, 12]: 71% and 90% and 86% and 50%
Maximal Percent Aggregation Response to 20 μM Adenosine Diphosphate [1, 12]: 72% and 84% and 80% and 78% and 88%
inhibition of platelet aggregation in the presence of 5 or 20 μM ADP [1]: did not significantly inhibit
Maximal Percent Aggregation Response to 1.6 mM Arachidonic Acid ([2]; Aspirin 1 μM, Mean): 69%
Maximal Percent Aggregation Response to 1.6 mM Arachidonic Acid ([2]; Aspirin 1 μM, individual donor): 75% and 0% and 100% and 73% and 95%
Maximal Percent Aggregation Response to 1.6 mM Arachidonic Acid ([2]; Aspirin 10 μM, Mean): 2%
Maximal Percent Aggregation Response to 1.6 mM Arachidonic Acid [2, 10]: 0% (3×) and 1% and 7%
Maximal Percent Aggregation Response to 1.6 mM Arachidonic Acid ([2]; Aspirin 100 μM, Mean): 1%
Maximal Percent Aggregation Response to 1.6 mM Arachidonic Acid [2, 11]: 0% (4×) and 5%
Maximal Percent Aggregation Response to 1.6 mM Arachidonic Acid ([2]; Aspirin 1000 μM, Mean): 2%
Maximal Percent Aggregation Response to 1.6 mM Arachidonic Acid [2, 12]: 0% (3×) and 8%
inhibition of AA-mediated platelet aggregation [2, 8]: near complete inhibition
inhibition of AA-mediated platelet aggregation [2, 9]: did not significantly inhibit
Maximal Percent Aggregation Response to 5 μg/mL Collagen ([3]; Aspirin 1 μM, Mean): 94%
Maximal Percent Aggregation Response to 5 μg/mL Collagen ([3]; Aspirin 1 μM, individual donor): 100% (2×) and 82% and 92% and 97%
Maximal Percent Aggregation Response to 5 μg/mL Collagen ([3]; Aspirin 10 μM, Mean): 91%
Maximal Percent Aggregation Response to 5 μg/mL Collagen [3, 10]: 86% and 100% (2×) and 80% and 87%
Maximal Percent Aggregation Response to 5 μg/mL Collagen ([3]; Aspirin 100 μM, Mean): 65%
Maximal Percent Aggregation Response to 5 μg/mL Collagen [3, 11]: 52% and 92% and 61% and 90% and 28%
Maximal Percent Aggregation Response to 5 μg/mL Collagen ([3]; Aspirin 1000 μM, Mean): 56%
Maximal Percent Aggregation Response to 5 μg/mL Collagen [3, 12]: 39% and 75% and 52% and 83% and 32%
inhibition at 1000 µM ([3]; Homo sapiens, Platelet, read-out: inhibition of collagen-mediated platelet aggregation response relative to DMSO control): ~37%
